{"source": "patent US20110165115A1", "about": "“SYNERGISTIC ATTRACTANTS FOR PESTIFEROUS SOCIAL INSECTS” (STERLING INTERNATIONAL INC., priority 2010, published 2011)", "key": {"V. pensylvanica": {"system": "V. pensylvanica", "assay": "Field trapping Experiment 1, Rescue W•H•Y traps", "assay_type": "in vivo, Vespula pensylvanica", "conditions": "Exp 1; HIPV added to WHY attractant in the top chamber, or WHY alone", "procedure": "(§1) Three field trapping experiments were carried out during late July to early August 2009, in residential and woody areas around Spokane, Wash., USA, using the newly marketed Rescue® W•H•Y traps (www.rescue.com). As used herein, the W•H•Y trap is a trap in accordance with the description of United States Patent Application Publication No. 2009/0151228. The W•H•Y trap has a top chamber and a bottom chamber. The top chamber is baited with two attractants—one of which is a solid contained in a vial (2-methyl-1-butanol) and the other a liquid mixed with water (acetic acid), herein referred to as the W•H•Y top attractant. The bottom chamber is baited with a liquid attractant (heptyl butyrate) poured onto a cotton pad, herein referred to as the W•H•Y bottom attractant. Separation of the top and bottom attractants (otherwise antagonistic to each other when released from the same chamber) in two chambers was a design feature of this trap and creates two focal attraction sources from one trap for different species of wasps, hornets, and yellowjackets. Traps were hung 1.5-2.0 m above the ground on either the fence or tree branches ca. 5 m apart within each trap line. For each trapping experiment, six sets of traps were deployed with their initial trap positions within each set being randomized. To minimize positional effects and obtain more replications, wasp collections and trap re-randomization were carried out when ≧10-20 wasps were caught in the best trap. Each replicate lasted several days depending on wasp flight activity. Captured wasps were removed from the traps and kept in the zip-bags before taking back to the laboratory for recording of the species, gender status, and catch.\n(§2) Experiment 3 (Aug. 5-13, 2009) was conducted to determine the potential behavioral activity of different doses of (E)-4,8-dimethyl-1,3,7-nonatriene alone. The individual (or different doses) HIPVs were loaded into either polyethylene bags or centrifuge tube type of dispensers, and released from the top of the W•H•Y trap chamber. W•H•Y trap attractants (both top and bottom or top only) alone and water (top chamber only) were included in the test as positive and blank controls, respectively. The dispenser types, loading and release rates of the tested semiochemicals are described in Tables 1, 2 and 3.\n(§3) Trap catch data were converted to proportion (P) of total captured wasps within each replicate. Data were then transformed by arcsin√P to meet the assumptions of normality and homogeneity of variances for ANOVA. Means were compared by ANOVA followed by the Ryan-Einot-Gabriel-Welsh (REGW) multiple Q test (SPSS 16.0 for Windows) at α=0.05."}, "V. vulgaris": {"system": "V. vulgaris", "assay": "Field trapping Experiment 1, Rescue W•H•Y traps", "assay_type": "in vivo, Vespula vulgaris", "conditions": "Exp 1; HIPV added to WHY attractant in the top chamber, or WHY alone", "procedure": "as §1, §2, §3"}, "D. maculata": {"system": "D. maculata", "assay": "Field trapping Experiment 1, Rescue W•H•Y traps", "assay_type": "in vivo, Dolichovespula maculata", "conditions": "Exp 1; HIPV added to WHY attractant in the top chamber, or WHY alone", "procedure": "as §1\n(§4) Experiment 1 (Jul. 22-30, 2009) tested ten synthetic HIPV candidates [(E)-2-hexenal, (Z)-3-hexen-1-ol, (Z)-3-hexenyl acetate, cis-ocimene, linalool, methyl salicylate, geranyl acetate, trans-β-caryophyllene, trans-β-farnesene and (E)-4,8-dimethyl-1,3,7-nonatriene], including several paper wasp EAD-active compounds (see FIG. 2 for details), to determine their potential synergistic effect on the Rescue® W•H•Y trap attractants to paper wasps, yellowjackets, and hornets. Experiment 2 (Aug. 5-13, 2009) tested behavioral responses of the paper wasps and yellowjackets to the Rescue® W•H•Y trap attractants (top attractants only) and its combination with (E)-4,8-dimethyl-1,3,7-nonatriene, one of the EAD-active and behaviorally significant HIPVs, in a dose-response fashion. Experiment 3 (Aug. 5-13, 2009) was conducted to determine the potential behavioral activity of different doses of (E)-4,8-dimethyl-1,3,7-nonatriene alone. The individual (or different doses) HIPVs were loaded into either polyethylene bags or centrifuge tube type of dispensers, and released from the top of the W•H•Y trap chamber. W•H•Y trap attractants (both top and bottom or top only) alone and water (top chamber only) were included in the test as positive and blank controls, respectively. The dispenser types, loading and release rates of the tested semiochemicals are described in Tables 1, 2 and 3.\nas §3"}, "D. arenaria": {"system": "D. arenaria", "assay": "Field trapping Experiment 1, Rescue W•H•Y traps", "assay_type": "in vivo, Dolichovespula arenaria", "conditions": "Exp 1; HIPV added to WHY attractant in the top chamber, or WHY alone", "procedure": "as §1, §4, §3"}, "V. acadica": {"system": "V. acadica", "assay": "Field trapping Experiment 1, Rescue W•H•Y traps", "assay_type": "in vivo, Vespula acadica", "conditions": "Exp 1; HIPV added to WHY attractant in the top chamber, or WHY alone", "procedure": "as §1, §2, §3"}, "P. dominulus": {"system": "P. dominulus", "assay": "Field trapping Experiment 1, Rescue W•H•Y traps", "assay_type": "in vivo, Polistes dominulus", "conditions": "Exp 1; HIPV added to WHY attractant in the top chamber, or WHY alone", "procedure": "as §1, §2, §3"}, "P. aurifer": {"system": "P. aurifer", "assay": "Field trapping Experiment 1, Rescue W•H•Y traps", "assay_type": "in vivo, Polistes aurifer", "conditions": "Exp 1; HIPV added to WHY attractant in the top chamber, or WHY alone", "procedure": "as §1, §2, §3"}, "[1]": {"system": "P. dominulus workers antennae", "assay": "GC-EAD of synthetic mixture of known HIPVs", "parameters": "species or system Polistes dominulus", "conditions": "100 ng/μl each in hexane", "procedure": "(§5) Aeration samples of the cherry branches (damaged or undamaged/slightly damaged) were injected (3 μl) splitless into a Varian CP-3800 GC equipped with a polar column (HP-INNOWax; 30 m×0.53 mm×1.0 μm film thickness; Agilent Technologies, Wilmington, Del., USA) and a 1:1 effluent splitter that allowed simultaneous flame ionization detection (FID) and electroantennographic detection (EAD) of the European paper wasp (Polistes dominulus) worker antennae to the separated volatile compounds. Helium was used as the carrier gas, and the injector and detector temperatures were 250° C. and 300° C., respectively. Column temperature was 50° C. for 1 min, rising to 240° C. at 10° C./min, and then held for 10 min. The outlet for the EAD was held in a humidified air stream flowing at 0.5 m/sec over the antennal preparation. EAD recordings were made using silver wire-glass capillary electrodes filled with Beadle-Ephrussi Ringer on freshly cut antennae. The antennal signals were stored and analyzed on a PC equipped with a serial IDAC interface box and the program EAD ver. 2.5 (Syntech, Hilversum, The Netherlands). In addition, GC-EAD responses to a synthetic mixture (100 ng/μl each) containing nine known HIPVs including cis-3-hexen-1-ol, cis-3-hexenyl acetate, trans-β-ocimene, (E)-4,8-dimethyl-1,3,7-nonatriene, linalool, methyl salicylate, geranyl acetate, trans-β-caryophyllene and trans-β-farnesene were tested on the P. dominulus workers. (See FIG. 2.) The same chemicals were also tested on beneficial insect antennae from Chrysopa oculata, Myrmeleon crudelis, Podisus maculiventris, and Hippodarnia convergens. (See FIG. 6.) Antennally active peaks in the aeration samples were identified by GC-MS on an HP 6890 GC series coupled with an HP 5973 Mass Selective Detector using the same type of GC column and conditions as described above. Compounds were identified by comparison of retention times with those of authentic standards and with mass spectra of standards."}, "V. atropilosa": {"system": "V. atropilosa", "assay_type": "in vivo, Vespula atropilosa", "conditions": "Exp 1; HIPV added to WHY attractant in the top chamber, or WHY alone"}, "[2]": {"system": "Chrysopa oculata antennae", "assay": "GC-EAD of synthetic HIPVs on beneficial insect antennae", "conditions": "FIG. 6", "procedure": "as §5"}, "[3]": {"system": "Hippodarnia convergens antennae", "assay": "GC-EAD of synthetic HIPVs on beneficial insect antennae", "conditions": "FIG. 6", "procedure": "as §5"}, "[4]": {"system": "Myrmeleon crudelis antennae", "assay": "GC-EAD of synthetic HIPVs on beneficial insect antennae", "conditions": "FIG. 6", "procedure": "as §5"}, "[5]": {"system": "Podisus maculiventris antennae", "assay": "GC-EAD of synthetic HIPVs on beneficial insect antennae", "conditions": "FIG. 6", "procedure": "as §5"}}}
{"smiles": "CC/C=C\\CCO", "note": "[Z-3-Hexanol, (Z)-3-hexen-1-ol]", "values": [{"measurement": "Total Yellowjacket Catches V. pensylvanica", "setting": "V. pensylvanica", "value": 288}, {"measurement": "Total Yellowjacket Catches V. vulgaris", "setting": "V. vulgaris", "value": 33}, {"measurement": "Total Yellowjacket Catches D. maculata", "setting": "D. maculata", "value": 5}, {"measurement": "Total Yellowjacket Catches D. arenaria", "setting": "D. arenaria", "value": 1}, {"measurement": "Total Yellowjacket Catches V. acadica", "setting": "V. acadica", "value": 0}, {"measurement": "Total Paper Wasps P. dominulus", "setting": "P. dominulus", "value": 25}, {"measurement": "Total Paper Wasps P. aurifer", "setting": "P. aurifer", "value": 4}, {"measurement": "EAD response of worker antennae", "setting": "[1]", "value": "responded consistently"}, {"measurement": "Total Yellowjacket Catches V. atropilosa", "setting": "V. atropilosa", "value": 0}]}
{"smiles": "C=C/C=C(\\C)CCC=C(C)C", "note": "[(E)-4,8-dimethyl-1,3,7-nonatriene]", "values": [{"measurement": "Total Yellowjacket Catches V. pensylvanica", "setting": "V. pensylvanica", "value": 463}, {"measurement": "Total Yellowjacket Catches V. vulgaris", "setting": "V. vulgaris", "value": 52}, {"measurement": "Total Yellowjacket Catches D. maculata", "setting": "D. maculata", "value": 12}, {"measurement": "Total Yellowjacket Catches D. arenaria", "setting": "D. arenaria", "value": 7}, {"measurement": "Total Yellowjacket Catches V. acadica", "setting": "V. acadica", "value": 1}, {"measurement": "Total Paper Wasps P. dominulus", "setting": "P. dominulus", "value": 152}, {"measurement": "Total Paper Wasps P. aurifer", "setting": "P. aurifer", "value": 12}, {"measurement": "EAD response of worker antennae", "setting": "[1]", "value": "responded consistently"}, {"measurement": "EAD-response", "setting": "[2]", "value": "strong EAD-responses"}, {"measurement": "EAD-response", "setting": "[3]", "value": "strong EAD-responses"}, {"measurement": "EAD-response", "setting": "[4]", "value": "strong EAD-responses"}, {"measurement": "EAD-response", "setting": "[5]", "value": "strong EAD-responses"}, {"measurement": "Total Yellowjacket Catches V. atropilosa", "setting": "V. atropilosa", "value": 3}]}
{"smiles": "COC(=O)c1ccccc1O", "note": "[Methyl Salicylate, methyl salicylate]", "values": [{"measurement": "Total Yellowjacket Catches V. pensylvanica", "setting": "V. pensylvanica", "value": 226}, {"measurement": "Total Yellowjacket Catches V. vulgaris", "setting": "V. vulgaris", "value": 23}, {"measurement": "Total Yellowjacket Catches D. maculata", "setting": "D. maculata", "value": 1}, {"measurement": "Total Yellowjacket Catches D. arenaria", "setting": "D. arenaria", "value": 4}, {"measurement": "Total Yellowjacket Catches V. acadica", "setting": "V. acadica", "value": 0}, {"measurement": "Total Paper Wasps P. dominulus", "setting": "P. dominulus", "value": 33}, {"measurement": "Total Paper Wasps P. aurifer", "setting": "P. aurifer", "value": 6}, {"measurement": "EAD response of worker antennae", "setting": "[1]", "value": "responded consistently"}, {"measurement": "EAD-response", "setting": "[2]", "value": "strong EAD-responses"}, {"measurement": "EAD-response", "setting": "[3]", "value": "strong EAD-responses"}, {"measurement": "EAD-response", "setting": "[4]", "value": "strong EAD-responses"}, {"measurement": "EAD-response", "setting": "[5]", "value": "strong EAD-responses"}, {"measurement": "Total Yellowjacket Catches V. atropilosa", "setting": "V. atropilosa", "value": 4}]}
{"smiles": "CC/C=C\\CCOC(C)=O", "note": "[Z-3-Hexenyl Acetate, (Z)-3-hexenyl acetate]", "values": [{"measurement": "Total Yellowjacket Catches V. pensylvanica", "setting": "V. pensylvanica", "value": 311}, {"measurement": "Total Yellowjacket Catches V. vulgaris", "setting": "V. vulgaris", "value": 34}, {"measurement": "Total Yellowjacket Catches D. maculata", "setting": "D. maculata", "value": 1}, {"measurement": "Total Yellowjacket Catches D. arenaria", "setting": "D. arenaria", "value": 8}, {"measurement": "Total Yellowjacket Catches V. acadica", "setting": "V. acadica", "value": 1}, {"measurement": "Total Paper Wasps P. dominulus", "setting": "P. dominulus", "value": 40}, {"measurement": "Total Paper Wasps P. aurifer", "setting": "P. aurifer", "value": 9}, {"measurement": "EAD response of worker antennae", "setting": "[1]", "value": "responded consistently"}, {"measurement": "EAD-response", "setting": "[2]", "value": "strong EAD-responses"}, {"measurement": "EAD-response", "setting": "[3]", "value": "strong EAD-responses"}, {"measurement": "EAD-response", "setting": "[4]", "value": "strong EAD-responses"}, {"measurement": "EAD-response", "setting": "[5]", "value": "strong EAD-responses"}, {"measurement": "Total Yellowjacket Catches V. atropilosa", "setting": "V. atropilosa", "value": 0}]}
